Measurements reported in patent publication US20030022821A1, “Bioactive peptides” (priority 1998, published 2003).
In brackets after ≈: the same amount, converted by molar mass. Read-outs that look alike come from different tables or passages of the source. Ends that are not written are not given here. Peptide text beside a SMILES is read from it. * marks the point of attachment. Acm = CC(=O)NC*

How the values were obtained:
[1] = system: Escherichia coli ATCC 25922; format: cell-based
Experimental: (§1) The bacterial strains used were: Escherichia coli ATCC 25922 and Staphylococcus aureus ATCC 25923. All strains were stored at −70° C. The bacteria were grown in 2% Bacto Peptone water (Difco 1807-17-4). All tests were performed with bacteria in mid-logarithmic growth phase. Determination of the minimum inhibitory concentration (MIC) of the peptides for bacterial strains were performed in 1% Bacto Peptone water. A standard microdilution technique with an inoculum of 2×10^6 CFU/ml was used. All assays were performed in triplets. Since the peptides are positively charged and therefore could adhere to the plastic wells, we controlled the actual concentration of the peptides in the solution by HPLC. There was no difference between the concentration of the peptides before or after adding the solution to the plastic wells.

[2] = system: Staphylococcus aureus ATCC 25923; format: cell-based
Experimental: as §1

CSCC[C@H](NC(=O)[C@H](CCCNC(=N)N)NC(=O)[C@H](Cc1c[nH]c2ccccc12)NC(=O)[C@H](CCC(N)=O)NC(=O)[C@H](Cc1c[nH]c2ccccc12)NC(=O)[C@H](CCCNC(=N)N)NC(=O)[C@H](Cc1ccccc1)NC(=O)[C@H](CSCNC(C)=O)NC(=O)[C@H](CCCCN)NC(=O)[C@@H](N)CCCCN)C(=O)N[C@@H](CCCCN)C(=O)N[C@@H](CCCCN)C(=O)N[C@@H](CC(C)C)C(=O)NCC(=O)N[C@@H](C)C(=O)O [LFB F4K1] (H-KKC(Acm)FRWQWRMKKLGA-OH; N-terminus assumed)
MIC E. coli ATCC 25922 ([1]; ATCC 25922): 20 µg/mL | MIC E. coli ATCC 25922 ([1]; Table 1, value in brackets): 10 µM | MIC E. coli ([1]; Table 12): 20 µg/mL (≈ 9.82 µM) | MIC S. aureus ATCC 25923 ([2]; ATCC 25923): 200 µg/mL | MIC S. aureus ATCC 25923 ([2]; Table 1, value in brackets): 100 µM | MIC S. aureus ([2]; Table 12): 200 µg/mL (≈ 98.2 µM)

CSCC[C@H](NC(=O)[C@H](CCCNC(=N)N)NC(=O)[C@H](Cc1c[nH]c2ccccc12)NC(=O)[C@H](CCC(N)=O)NC(=O)[C@H](Cc1c[nH]c2ccccc12)NC(=O)[C@H](CCCNC(=N)N)NC(=O)[C@H](CC(C)C)NC(=O)[C@H](CSCNC(C)=O)NC(=O)[C@H](CCCCN)NC(=O)[C@@H](N)CCC(=O)O)C(=O)N[C@@H](CCCNC(=N)N)C(=O)N[C@@H](CCCCN)C(=O)N[C@@H](Cc1ccc(O)cc1)C(=O)NCC(=O)NCC(=O)O [LFM R9 W8 Y13] (H-EKC(Acm)LRWQWRMRKYGG-OH; N-terminus and C-terminus assumed)
MIC E. coli ([1]; ATCC 25922): 150 µg/mL (≈ 72.5 µM) | MIC S. aureus ([2]; ATCC 25923): 1000 µg/mL (≈ 483 µM)

CSCC[C@H](NC(=O)[C@H](CCCNC(=N)N)NC(=O)[C@H](Cc1ccc(-c2ccccc2)cc1)NC(=O)[C@H](CCC(N)=O)NC(=O)[C@H](Cc1c[nH]c2ccccc12)NC(=O)[C@H](CCCNC(=N)N)NC(=O)[C@H](CCCNC(=N)N)NC(=O)[C@H](CSCNC(C)=O)NC(=O)[C@H](CCCCN)NC(=O)[C@@H](N)Cc1ccccc1)C(=O)N[C@@H](CCCCN)C(=O)N[C@@H](CCCCN)C(=O)N[C@@H](CC(C)C)C(=O)NCC(=O)N[C@@H](C)C(=O)O [LFB Bip8]
MIC E. coli ([1]; ATCC 25922): 15 µg/mL (≈ 7.13 µM) | MIC S. aureus ([2]; ATCC 25923): 15 µg/mL (≈ 7.13 µM)

TKCFQWQRNMRKVRG [Native LFH]
MIC E. coli ([1]; Table 4): > 1000 µg/mL | MIC S. aureus ([2]; Table 4, unit assumed): > 1000 µg/mL

SKCRQWQSKIRRTNP [Native LFP, porcine region corresponding to LFB 17-31]
MIC E. coli ([1]; Table 4): > 1000 µg/mL | MIC S. aureus ([2]; Table 4, unit assumed): > 1000 µg/mL

CSCC[C@H](NC(=O)[C@H](C)NC(=O)[C@H](Cc1c[nH]c2ccccc12)NC(=O)[C@H](CCC(N)=O)NC(=O)[C@H](Cc1c[nH]c2ccccc12)NC(=O)[C@H](CCCNC(=N)N)NC(=O)[C@H](CC(C)C)NC(=O)[C@H](CSCNC(C)=O)NC(=O)[C@H](CCCCN)NC(=O)[C@H](C)N)C(=O)N[C@@H](CCCNC(=N)N)C(=O)N[C@@H](CCCCN)C(=O)N[C@@H](Cc1ccc(O)cc1)C(=O)NCC(=O)NCC(=O)O [LFM A1, 9 W8 Y13] (H-AKC(Acm)LRWQWAMRKYGG-OH; N-terminus and C-terminus assumed)
MIC E. coli ([1]; ATCC 25922): 150 µg/mL (≈ 77.9 µM) | MIC S. aureus ([2]; ATCC 25923): >1000 µg/mL

RRWQWRMKKLGA-OH [LFB 20-31]
MIC E. coli ATCC 25922 ([1]; ATCC 25922): 100 µg/mL | MIC E. coli ATCC 25922 ([1]; Table 1, value in brackets): 62 µM | MIC E. coli ([1]; Table 11): 100 µg/mL | MIC S. aureus ATCC 25923 ([2]; ATCC 25923): 200 µg/mL | MIC S. aureus ATCC 25923 ([2]; Table 1, value in brackets): 124 µM | MIC S. aureus ([2]; Table 11): 200 µg/mL

CSCC[C@H](NC(=O)[C@H](CC(N)=O)NC(=O)[C@H](Cc1c[nH]c2ccccc12)NC(=O)[C@H](CCC(N)=O)NC(=O)[C@H](Cc1c[nH]c2ccccc12)NC(=O)[C@H](CCC(N)=O)NC(=O)[C@H](Cc1ccccc1)NC(=O)[C@H](CSCNC(C)=O)NC(=O)[C@H](CCCCN)NC(=O)[C@@H](N)[C@@H](C)O)C(=O)N[C@@H](CCCNC(=N)N)C(=O)N[C@@H](CCCCN)C(=O)N[C@H](C(=O)N[C@@H](CCCNC(=N)N)C(=O)NCC(=O)O)C(C)C [LFHW8, H2N-Thr-Lys-Cys-Phe-Gln-Trp-Gln-Trp-Asn-Met-Arg-Lys-Val-Arg-Gly-COOH] (H-TKC(Acm)FQWQWNMRKVRG-OH)
MIC E. coli ([1]; Table 4): 110 µg/mL (≈ 53.9 µM) | MIC S. aureus ([2]; Table 4, unit assumed): > 1000 µg/mL

CSCC[C@H](NC(=O)[C@H](CCCNC(=N)N)NC(=O)[C@H](Cc1c[nH]c2ccccc12)NC(=O)[C@H](CCC(N)=O)NC(=O)[C@H](Cc1c[nH]c2ccccc12)NC(=O)[C@H](CCCNC(=N)N)NC(=O)[C@H](CCCNC(=N)N)NC(=O)[C@H](CSCNC(C)=O)NC(=O)[C@H](CCCCN)NC(=O)[C@@H](N)Cc1ccccc1)C(=O)N[C@@H](CCCCN)C(=O)N[C@@H](C)C(=O)N[C@@H](CC(C)C)C(=O)NCC(=O)N[C@@H](C)C(=O)O [LFB A12] (H-FKC(Acm)RRWQWRMKALGA-OH)
MIC E. coli ([1]; ATCC 25922): 50 µg/mL (≈ 24.9 µM) | MIC S. aureus ([2]; ATCC 25923): >200 µg/mL

CSCC[C@H](NC(=O)[C@H](CCC(=O)O)NC(=O)[C@H](Cc1c[nH]c2ccccc12)NC(=O)[C@H](CCC(N)=O)NC(=O)[C@H](Cc1c[nH]c2ccccc12)NC(=O)[C@H](CCCNC(=N)N)NC(=O)[C@H](CC(C)C)NC(=O)[C@H](CSCNC(C)=O)NC(=O)[C@H](CCCCN)NC(=O)[C@H](C)N)C(=O)N[C@@H](CCCNC(=N)N)C(=O)N[C@@H](CCCCN)C(=O)N[C@@H](Cc1ccc(O)cc1)C(=O)NCC(=O)NCC(=O)O [LFM A1 W8 Y13] (H-AKC(Acm)LRWQWEMRKYGG-OH; N-terminus and C-terminus assumed)
MIC E. coli ([1]; ATCC 25922): 500 µg/mL (≈ 252 µM) | MIC S. aureus ([2]; ATCC 25923): >1000 µg/mL

CSCC[C@H](NC(=O)[C@H](CCCNC(=N)N)NC(=O)[C@H](Cc1c[nH]c2ccccc12)NC(=O)[C@H](CCC(N)=O)NC(=O)[C@H](Cc1c[nH]c2ccccc12)NC(=O)[C@H](CCCNC(=N)N)NC(=O)[C@H](CCCNC(=N)N)NC(=O)[C@H](CSCNC(C)=O)NC(=O)[C@H](CCCCN)NC(=O)[C@@H](N)Cc1ccccc1)C(=O)N[C@@H](C)C(=O)N[C@@H](CCCCN)C(=O)N[C@@H](CC(C)C)C(=O)NCC(=O)N[C@@H](C)C(=O)O [LFB A11] (H-FKC(Acm)RRWQWRMAKLGA-OH)
MIC E. coli ([1]; ATCC 25922): 70 µg/mL (≈ 34.9 µM) | MIC S. aureus ([2]; ATCC 25923): >200 µg/mL

CSCC[C@H](NC(=O)[C@H](CCCNC(=N)N)NC(=O)[C@H](Cc1c[nH]c2ccccc12)NC(=O)[C@H](CCC(N)=O)NC(=O)[C@H](Cc1c[nH]c2ccccc12)NC(=O)[C@H](CCCNC(=N)N)NC(=O)[C@H](CCCNC(=N)N)NC(=O)[C@H](CSCNC(C)=O)NC(=O)[C@H](C)NC(=O)[C@@H](N)Cc1ccccc1)C(=O)N[C@@H](CCCCN)C(=O)N[C@@H](CCCCN)C(=O)N[C@@H](CC(C)C)C(=O)NCC(=O)N[C@@H](C)C(=O)O [LFB A2] (H-FAC(Acm)RRWQWRMKKLGA-OH)
MIC E. coli ([1]; ATCC 25922): 80 µg/mL (≈ 39.8 µM) | MIC S. aureus ([2]; ATCC 25923): >200 µg/mL

CSCC[C@H](NC(=O)[C@H](CCCNC(=N)N)NC(=O)[C@H](Cc1c[nH]c2ccccc12)NC(=O)[C@H](CCC(N)=O)NC(=O)[C@H](Cc1c[nH]c2ccccc12)NC(=O)[C@H](CCCNC(=N)N)NC(=O)[C@H](CC(C)C)NC(=O)[C@H](CSCNC(C)=O)NC(=O)[C@H](CCCCN)NC(=O)[C@H](C)N)C(=O)N[C@@H](CCCNC(=N)N)C(=O)N[C@@H](CCCCN)C(=O)N[C@@H](Cc1ccc(O)cc1)C(=O)NCC(=O)NCC(=O)O [LFM A1 R9 W8 Y13] (H-AKC(Acm)LRWQWRMRKYGG-OH; N-terminus and C-terminus assumed)
MIC E. coli ([1]; ATCC 25922): 50 µg/mL (≈ 24.9 µM) | MIC S. aureus ([2]; ATCC 25923): 200 µg/mL (≈ 99.5 µM)
